{"source": "patent US20130261130A1", "about": "“NEUROTRYPSIN INHIBITORS” (priority 2010, published 2013)", "data": [{"target": "T1, human neurotrypsin (Homo sapiens, UniProt P56730)", "T1 sequence (P56730 21-875)": "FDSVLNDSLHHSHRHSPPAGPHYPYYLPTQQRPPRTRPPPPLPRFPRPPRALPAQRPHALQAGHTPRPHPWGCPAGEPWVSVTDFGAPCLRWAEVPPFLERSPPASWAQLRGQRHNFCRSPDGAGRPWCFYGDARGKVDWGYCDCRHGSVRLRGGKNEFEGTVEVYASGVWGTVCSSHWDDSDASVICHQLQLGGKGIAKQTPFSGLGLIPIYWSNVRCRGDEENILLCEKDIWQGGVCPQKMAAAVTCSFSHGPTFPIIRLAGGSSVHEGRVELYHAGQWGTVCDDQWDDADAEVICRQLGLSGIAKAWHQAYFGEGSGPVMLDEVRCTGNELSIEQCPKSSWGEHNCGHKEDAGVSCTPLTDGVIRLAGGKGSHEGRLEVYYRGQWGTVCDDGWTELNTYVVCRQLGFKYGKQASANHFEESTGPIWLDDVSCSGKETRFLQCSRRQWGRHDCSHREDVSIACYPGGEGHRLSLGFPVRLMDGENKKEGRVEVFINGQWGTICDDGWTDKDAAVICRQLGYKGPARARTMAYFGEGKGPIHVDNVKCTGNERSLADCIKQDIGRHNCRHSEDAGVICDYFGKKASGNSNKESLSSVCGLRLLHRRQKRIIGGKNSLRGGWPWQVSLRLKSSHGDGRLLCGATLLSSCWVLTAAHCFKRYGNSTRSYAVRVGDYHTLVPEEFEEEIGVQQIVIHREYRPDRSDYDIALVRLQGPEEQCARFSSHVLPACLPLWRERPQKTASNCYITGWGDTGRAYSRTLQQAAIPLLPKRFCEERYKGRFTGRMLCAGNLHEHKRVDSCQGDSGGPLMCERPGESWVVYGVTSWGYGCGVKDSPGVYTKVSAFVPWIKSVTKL", "assay": "Determination of IC50 for human neurotrypsin", "type": "biochemical", "settings": "human neurotrypsin; method of WO 2006/1103261; read-out: Neurotrypsin IC50", "protocol": "Assessment of the potency of compounds of examples 1-311 in inhibiting the enzymatic activity of human neurotrypsin was performed according to the method described in patent application WO 2006/1103261", "units": {"IC50": "µM"}, "values": [{"molecule": "O=C(NCc1ccc(Cl)s1)c1ccc(C(=O)O)c(NC(=O)c2sc3ccccc3c2Cl)c1", "note": "[Example 90]", "IC50": 4.9}, {"molecule": "O=C(O)c1ccc(N2CC(c3ccc(Cl)cc3)CCC2=O)cc1NC(=O)c1sc2ccccc2c1Cl", "note": "(stereo not shown) [Example 286]", "IC50": 10.4}, {"molecule": "O=C(Nc1ccc(C(=O)N2CCC(Oc3ccccc3)CC2)cc1C(=O)O)c1cc2ccc(Cl)cc2s1", "note": "[Example 160, 2-(6-Chlorobenzo[b]thiophene-2-carboxamido)-5-(4-phenoxypiperidine-1-carbonyl)benzoic acid]", "IC50": 3.9}, {"molecule": "5-(N-4-Butylphenyl-N-methyl-carbamoyl)-2-(4-(5,6-dichloro-1H-benzo[d]-imidazol-2-yl)benzamido)-benzoic acid [Example 44]", "IC50": 1.6}, {"molecule": "O=C(Nc1ccc(C(=O)N2CCC(c3ccc(F)cc3)CC2)cc1C(=O)O)c1ccc(-c2nc3cc(Cl)c(Cl)cc3[nH]2)cc1", "note": "[Example 38, 2-(4-(5,6-Dichloro-1H-benzo[d]imidazol-2-yl)-benzamido)-5-(4-(4-fluorophenyl)piperidine-1-carbonyl)benzoic acid]", "IC50": 4.8}, {"molecule": "O=C(Nc1ccc(Oc2ccccc2)cc1)c1ccc(C(=O)O)c(NC(=O)c2sc3ccccc3c2Cl)c1", "note": "[Example 64]", "IC50": 23.3}, {"molecule": "COc1ccc(-c2ccc(C(=O)O)c(NC(=O)c3ccc(-c4nc5cc(Cl)c(Cl)cc5[nH]4)cc3)c2)cc1", "note": "[Example 266]", "IC50": 3.7}, {"molecule": "O=C(O)c1cc(NC(=O)c2sc3ccccc3c2Cl)ccc1C(=O)Nc1ccc(Cl)cc1", "note": "[Example 270, 5-(3-Chlorobenzo[b]thiophene-2-carboxamido)-2-(4-chlorophenyl-carbamoyl)benzoic acid]", "IC50": 22.9}, {"molecule": "O=C(Nc1ccccc1F)c1ccc(NC(=O)c2[nH]c3ccc(Cl)cc3c2-c2ccccc2)c(C(=O)O)c1", "note": "[Example 139]", "IC50": 7.5}, {"molecule": "2-(6-Chlorobenzo[b]-thiophene-2-carboxamido)-5-((5-chlorothiophen-2-yl-methyl)carbamoyl)benzoic acid [Example 107]", "IC50": 4.8}, {"molecule": "O=C(NC1CCCc2ccccc21)c1ccc(NC(=O)c2ccc(-c3ccc(Cl)cc3)s2)c(C(=O)O)c1", "note": "(stereo not shown) [Example 112]", "IC50": 5}, {"molecule": "O=C(Nc1ccc(C(=O)N2CCC(c3ccccc3)CC2)cc1C(=O)O)c1cc2ccc(Cl)cc2s1", "note": "[Example 163, 2-(6-Chlorobenzo[b]-thiophene-2-carboxamido)-5-(4-phenylpiperidine-1-carbonyl)benzoic acid]", "IC50": 2.6}, {"molecule": "CC(C)CN(CC(C)C)C(=O)c1ccc(NC(=O)c2ccc(-c3nc4cc(Cl)c(Cl)cc4[nH]3)cc2)c(C(=O)O)c1", "note": "[Example 131]", "IC50": 0.7}, {"molecule": "O=C(Nc1ccc(C(=O)N2CCCCC2)cc1C(=O)O)c1ccc(-c2nc3cc(Cl)c(Cl)cc3[nH]2)cc1", "note": "[Example 124]", "IC50": 3.9}, {"molecule": "CN(C(=O)c1ccc(C(=O)O)c(NC(=O)c2sc3ccccc3c2Cl)c1)c1cc2ccccc2s1", "note": "[Example 88]", "IC50": 24.8}, {"molecule": "O=C(Nc1ccc(C(=O)NC2CCCCC2)cc1C(=O)O)c1ccc(-c2nc3cc(Cl)c(Cl)cc3[nH]2)cc1", "note": "[Example 125]", "IC50": 3.5}, {"molecule": "O=C(O)c1ccc(-c2cn(Cc3ccc(Cl)s3)nn2)cc1NC(=O)c1sc2ccccc2c1Cl", "note": "[Example 262]", "IC50": 7}, {"molecule": "4-(4-tert-Butoxyphenyl-carbamoyl)-3-(3-chloro-thiophene-2-carboxamido)-benzoic acid [Example 194]", "IC50": 5.9}, {"molecule": "CC(NC(=O)c1ccc(NC(=O)c2ccc(-c3nc4cc(Cl)c(Cl)cc4[nH]3)cc2)c(C(=O)O)c1)c1ccc(Cl)cc1", "note": "(stereo not shown) [Example 133]", "IC50": 1.9}, {"molecule": "O=C(NC12CC3CC(CC(C3)C1)C2)c1ccc(C(=O)O)c(NC(=O)c2sc3ccccc3c2Cl)c1", "note": "[Example 33, 2-(3-Chlorobenzo[b]-thiophene-2-carboxamido)-4-(adamantylcarbamoyl)-benzoic acid]", "IC50": 4.5}, {"molecule": "O=C(O)COc1cc(C(=O)O)c(NC(=O)c2ccc(-c3nc4cc(Cl)c(Cl)cc4n3CC(=O)O)cc2)cc1C(=O)Nc1ccc(Cl)cc1", "note": "[Example 302, 5-(Carboxymethoxy)-2-(4-(1-(carboxymethyl)-5,6-dichloro-1H-benzo[d]imidazol-2-yl)benzamido)-4-(4-chlorophenylcarbamoyl)benzoic acid]", "IC50": 4.4}, {"molecule": "O=C(Nc1ccc(Sc2ccc(Cl)cc2)cc1C(=O)O)c1ccc(-c2ccc(Cl)cc2)s1", "note": "[Example 293]", "IC50": 8.7}, {"molecule": "O=C(Nc1nccs1)c1ccc(C(=O)O)c(NC(=O)c2sc3ccccc3c2Cl)c1", "note": "[Example 52, 2-(3-Chlorobenzo[b]thiophene-2-carboxamido)-4-(thiazol-2-ylcarbamoyl)-benzoic acid]", "IC50": 15.4}, {"molecule": "O=C(Nc1ccc(C(=O)N2CCC(Cc3ccc(F)cc3)CC2)cc1C(=O)O)c1ccc(-c2nc3cc(Cl)c(Cl)cc3[nH]2)cc1", "note": "[Example 141, 2-(4-(5,6-Dichloro-1H-benzo[d]imidazol-2-yl)benzamido)-5-(4-(4-fluorobenzyl)piperidine-1-carbonyl)benzoic acid]", "IC50": 1.9}, {"molecule": "O=C(NCc1ccc(-c2ccc(Cl)cc2)s1)c1ccc(C(=O)O)c(NC(=O)c2sc3ccccc3c2Cl)c1", "note": "[Example 91, 2-(3-Chlorobenzo[b]-thiophene-2-carboxamido)-4-((5-(4-chlorophenyl)thiophen-2-ylmethyl)carbamoyl)-benzoic acid]", "IC50": 10}, {"molecule": "O=C(O)c1ccc(NC(=O)c2ccc(Cl)s2)c(C(=O)Nc2ccc(Cl)cc2)c1", "note": "[Example 218, 3-(4-Chlorophenyl-carbamoyl)-4-(5-chloro-thiophene-2-carboxamido)-benzoic acid]", "IC50": 40.8}, {"molecule": "COc1ccc2c(Cl)c(C(=O)Nc3cc(C(=O)Nc4ccc(Cl)cc4)ccc3C(=O)O)sc2c1", "note": "[Example 142, 2-(3-Chloro-6-methoxy-benzo[b]thiophene-2-carbox)-4-(4-chlorophenylcarbamoyl)-benzoic acid]", "IC50": 2.2}, {"molecule": "O=C(Nc1ccc(C(=O)O)c(NC(=O)c2sc3ccccc3c2Cl)c1)c1ccc(Cl)s1", "note": "[Example 274]", "IC50": 6.6}, {"molecule": "O=C(O)c1ccc(C(=O)N2CCC(c3ccccc3)C2)cc1NC(=O)c1sc2ccccc2c1Cl", "note": "(stereo not shown) [Example 103]", "IC50": 4.1}, {"molecule": "O=C(O)c1ccc(N2CC(c3ccc(Cl)cc3)CC2=O)cc1NC(=O)c1sc2ccccc2c1Cl", "note": "(stereo not shown) [Example 282]", "IC50": 11.3}, {"molecule": "O=C(O)c1cc(C(=O)N2CCC(c3ccc(O)cc3)CC2)ccc1NC(=O)c1sc2ccccc2c1Cl", "note": "[Example 122]", "IC50": 9.4}, {"molecule": "O=C(Nc1ccc(Cl)cc1)c1ccc(C(=O)O)c(NC(=O)c2sc3cc(Cl)ccc3c2Cl)c1", "note": "[Example 18, 4-(4-Chlorophenyl-carbamoyl)-2-(3,6-dichloro-benzo[b]thiophene-2-carboxamido)benzoic acid]", "IC50": 8.3}, {"molecule": "CCCCCCCNC(=O)c1ccc(NC(=O)c2ccc(-c3nc4cc(Cl)c(Cl)cc4[nH]3)cc2)c(C(=O)O)c1", "note": "[Example 137]", "IC50": 2.4}, {"molecule": "O=C(Nc1ccc(C(=O)O)c(NC(=O)c2ccc(-c3ccccc3)s2)c1)c1ccc(Cl)s1", "note": "[Example 275]", "IC50": 3}, {"molecule": "O=C(O)c1cc(NC(=O)c2sc3ccccc3c2Cl)ccc1C(=O)Nc1ccc(Cl)cc1", "note": "[Example 271]", "IC50": 14.2}, {"molecule": "O=C(Nc1ccc(Oc2ccccc2)c(Cl)c1)c1ccc(C(=O)O)c(NC(=O)c2sc3ccccc3c2Cl)c1", "note": "[Example 73]", "IC50": 4.4}, {"molecule": "O=C(Nc1nc2ccc(Cl)cc2s1)c1ccc(C(=O)O)c(NC(=O)c2sc3ccccc3c2Cl)c1", "note": "[Example 87, 2-(3-Chlorobenzo[b]-thiophene-2-carboxamido)-4-(6-chlorobenzo[d]thiazol-2-yl-carbamoyl)benzoic acid]", "IC50": 4.3}, {"molecule": "CCOC(=O)CN(C(=O)c1ccc(C(=O)O)c(NC(=O)c2sc3ccccc3c2Cl)c1)c1ccc(Cl)cc1", "note": "[Example 156, 2-(3-Chlorobenzo[b]-thiophene-2-carboxamido)-4-(N-(4-chlorophenyl)-N-(ethoxycarbonylmethyl)-carbamoyl)benzoic acid]", "IC50": 4.7}, {"molecule": "O=C(O)c1ccc(C(=O)N2CCC(Cc3ccccc3)CC2)cc1NC(=O)c1sc2ccccc2c1Cl", "note": "[Example 24, 4-(4-Benzylpiperidine-1-carbonyl)-2-(3-chloro-benzo[b]thiophene-2-carboxamido)benzoic acid]", "IC50": 4}, {"molecule": "Cn1c(-c2ccc(C(=O)Nc3cc(C(=O)Nc4ccc(Cl)cc4)c(OCC(=O)O)cc3C(=O)O)cc2)nc2cc(Cl)c(Cl)cc21", "note": "[Example 306]", "IC50": 0.5}, {"molecule": "O=C(Nc1ccc(Oc2cccnc2)c(Cl)c1)c1ccc(C(=O)O)c(NC(=O)c2sc3ccccc3c2Cl)c1", "note": "[Example 85]", "IC50": 2.3}, {"molecule": "O=C(Nc1ccc(Cl)cn1)c1ccc(C(=O)O)c(NC(=O)c2sc3ccccc3c2Cl)c1", "note": "[Example 16, 2-(3-Chlorobenzo[b]-thiophene-2-carboxamido)-4-(5-chloropyridin-2-yl-carbamoyl)benzoic acid]", "IC50": 8}, {"molecule": "O=C(N[C@@H]1C[C@H]2CC[C@@H]1C2)c1ccc(C(=O)O)c(NC(=O)c2sc3ccccc3c2Cl)c1", "note": "[Example 34, 4-((1R,2R,4S)-Bicyclo[2.2.1]-heptan-2-ylcarbamoyl)-2-(3-chlorobenzo[b]thiophene-2-carboxamido)benzoic acid]", "IC50": 14.1}]}]}
